Reference: ChEMBL document CHEMBL3351509, “Identification of 3,6-disubstituted dihydropyrones as inhibitors of human lactate dehydrogenase” (Bioorg Med Chem Lett, 2014)
Values after ≈ are worked out from the molar mass of the structure shown. Blank lines part the entries; values can stand above or below the molecule they belong to.

Experiments:
[1] = Dissociation constant, pKa of the compound; format: physicochemical
[2] = target: L-lactate dehydrogenase A chain (Homo sapiens, UniProt P00338); assay: Inhibition of human LDH-A by biochemical assay
[3] = Permeability from apical to basolateral side in MDCK cells; format: ADME, cell-based, Canis lupus familiaris; details: dog
[4] = Permeability from basolateral to apical side in MDCK cells; format: ADME, cell-based, Canis lupus familiaris; details: dog
[5] = Unbound fraction in human plasma; format: ADME, cell-free
[6] = Unbound fraction in rat plasma; format: ADME, cell-free
MCF7 [7] = assay: Toxicity in human MCF7 cells assessed as effect on cell viability; format: cell-based
[8] = Hepatic clearance in human liver microsomes; format: ADME
MCF7 [9] = assay: Inhibition of lactate production in human MCF7 cells under standard serum conditions; format: functional, cell-based
[10] = Hepatic clearance in rat liver microsomes; format: ADME
MCF7 [11] = assay: Inhibition of lactate production in human MCF7 cells in absence of serum; format: functional, cell-based
[12] = Kinetic solubility in pH 7.4 buffered aqueous solution; format: physicochemical; details: read-out: Kinetic_solubility

pKa [1]: 3
IC50 [2]: 4 µM
Papp A→B [3]: 12 ×10⁻⁶ cm/s
Papp B→A [4]: 18 ×10⁻⁶ cm/s
SMILES: O=C1CC(c2ccccc2)CC(O)=C1Sc1ccccc1Cl (stereo not drawn)

SMILES: O=C1OC(C(=O)O)(c2ccccc2)CC(O)=C1Sc1ccccc1Cl (stereo not drawn)
IC50 [2]: 46 µM

pKa [1]: 2.4
IC50 [2]: 4 µM
fraction unbound [5]: 0.008
Papp A→B [3]: 3 ×10⁻⁶ cm/s
Papp B→A [4]: 5 ×10⁻⁶ cm/s
fraction unbound [6]: 0.008
SMILES: O=C1OC(c2ccccc2)CC(O)=C1Sc1ccccc1Cl (stereo not drawn)

pKa [1]: 4.1
fraction unbound [5]: 0.003
Papp A→B [3]: 7 ×10⁻⁶ cm/s
Papp B→A [4]: 9 ×10⁻⁶ cm/s
fraction unbound [6]: 0.006
SMILES: O=C1NC(c2ccccc2)CC(O)=C1Sc1ccccc1Cl (stereo not drawn)

pKa [1]: 3.4
IC50 [2]: 11 µM
fraction unbound [5]: 0.006
Papp A→B [3]: 4 ×10⁻⁶ cm/s
Papp B→A [4]: 6 ×10⁻⁶ cm/s
fraction unbound [6]: 0.013
SMILES: O=C1OC(c2ccccc2)CC(O)=C1Oc1ccccc1Cl (stereo not drawn)

pKa [1]: 3.7
IC50 [2]: 26 µM
fraction unbound [5]: 0.011
Papp A→B [3]: 11 ×10⁻⁶ cm/s
Papp B→A [4]: 16 ×10⁻⁶ cm/s
fraction unbound [6]: 0.012
SMILES: O=C1CC(c2ccccc2)CC(O)=C1Oc1ccccc1Cl (stereo not drawn)

pKa [1]: 5.3
IC50 [2]: 11 µM
fraction unbound [5]: 0.022
Papp A→B [3]: 11 ×10⁻⁶ cm/s
Papp B→A [4]: 12 ×10⁻⁶ cm/s
fraction unbound [6]: 0.023
SMILES: O=C1NC(c2ccccc2)CC(O)=C1Oc1ccccc1Cl (stereo not drawn)

pKa [1]: 4.2
IC50 [2]: 13 µM
Papp A→B [3]: 8 ×10⁻⁶ cm/s
Papp B→A [4]: 10 ×10⁻⁶ cm/s
SMILES: O=C1OC(c2ccccc2)CC(O)=C1Nc1ccccc1Cl (stereo not drawn)

pKa [1]: 4.6
IC50 [2]: 25 µM
Papp A→B [3]: 4 ×10⁻⁶ cm/s
Papp B→A [4]: 10 ×10⁻⁶ cm/s
SMILES: O=C1CC(c2ccccc2)CC(O)=C1Nc1ccccc1Cl (stereo not drawn)

pKa [1]: 6
IC50 [2]: 66 µM
Papp A→B [3]: 19 ×10⁻⁶ cm/s
Papp B→A [4]: 30 ×10⁻⁶ cm/s
SMILES: O=C1NC(c2ccccc2)CC(O)=C1Nc1ccccc1Cl (stereo not drawn)

IC50 [2]: 5.5 µM
SMILES: O=C1OC(c2ccccc2Cl)CC(O)=C1Sc1ccccc1Cl (stereo not drawn)

IC50 [2]: 3.9 µM
SMILES: O=C1OC(c2cccc(Cl)c2)CC(O)=C1Sc1ccccc1Cl (stereo not drawn)

IC50 [2]: 16 µM
SMILES: O=C1OC(c2ccc(Cl)cc2)CC(O)=C1Sc1ccccc1Cl (stereo not drawn)

IC50 [2]: 5 µM
SMILES: O=C1OC(c2c(Cl)cccc2Cl)CC(O)=C1Sc1ccccc1Cl (stereo not drawn)

IC50 [2]: 17 µM
SMILES: Cc1cccc(C)c1C1CC(O)=C(Sc2ccccc2Cl)C(=O)O1 (stereo not drawn)

IC50 [2]: > 100 µM
SMILES: N#Cc1ccccc1C1CC(O)=C(Sc2ccccc2Cl)C(=O)O1 (stereo not drawn)

IC50 [2]: 9.5 µM
SMILES: N#Cc1cccc(C2CC(O)=C(Sc3ccccc3Cl)C(=O)O2)c1 (stereo not drawn)

IC50 [2]: 3.8 µM
SMILES: CCOc1ccccc1C1CC(O)=C(Sc2ccccc2Cl)C(=O)O1 (stereo not drawn)

IC50 [2]: 2.2 µM
SMILES: CCOc1cccc(C2CC(O)=C(Sc3ccccc3Cl)C(=O)O2)c1 (stereo not drawn)

IC50 [2]: > 100 µM
SMILES: CC(C)C1CC(O)=C(Sc2ccccc2Cl)C(=O)O1 (stereo not drawn)

IC50 [2]: > 100 µM
SMILES: O=C1OC(C2CCOCC2)CC(O)=C1Sc1ccccc1Cl (stereo not drawn)

IC50 [2]: 35 µM
SMILES: Cn1ccc(C2CC(O)=C(Sc3ccccc3Cl)C(=O)O2)n1 (stereo not drawn)

IC50 [2]: 73 µM
SMILES: O=C1OC(c2cncnc2)CC(O)=C1Sc1ccccc1Cl (stereo not drawn)

IC50 [2]: 3.5 µM
SMILES: O=C1OC(c2ccccn2)CC(O)=C1Sc1ccccc1Cl (stereo not drawn)

IC50 [2]: 15 µM
SMILES: O=C1OC(c2cccnc2)CC(O)=C1Sc1ccccc1Cl (stereo not drawn)

IC50 [2]: 43 µM
SMILES: O=C1OC(c2ccncc2)CC(O)=C1Sc1ccccc1Cl (stereo not drawn)

IC50 [2]: 4.1 µM
SMILES: CC1(c2ccccc2)CC(O)=C(Sc2ccccc2Cl)C(=O)O1 (stereo not drawn)

IC50 [2]: 13 µM
SMILES: O=C1OC(c2ccccc2)(C2CC2)CC(O)=C1Sc1ccccc1Cl (stereo not drawn)

IC50 [2]: 5.6 µM
SMILES: O=C1OC(CO)(c2ccccc2)CC(O)=C1Sc1ccccc1Cl (stereo not drawn)

IC50 [2]: 6.6 µM
SMILES: NC(=O)C1(c2ccccc2)CC(O)=C(Sc2ccccc2Cl)C(=O)O1 (stereo not drawn)

IC50 [2]: 7.4 µM
SMILES: CNC(=O)C1(c2ccccc2)CC(O)=C(Sc2ccccc2Cl)C(=O)O1 (stereo not drawn)

IC50 [2]: 22 µM
SMILES: CN(C)C(=O)C1(c2ccccc2)CC(O)=C(Sc2ccccc2Cl)C(=O)O1 (stereo not drawn)

IC50 [2]: 59 µM
SMILES: CNC(=O)CC1(c2ccccc2)CC(O)=C(Sc2ccccc2Cl)C(=O)O1 (stereo not drawn)

IC50 [2]: 2.1 µM
SMILES: O=C1OC2(CCc3c(Br)cccc32)CC(O)=C1Sc1ccccc1Cl (single isomer, unassigned)

IC50 [2]: 3.3 µM
SMILES: O=C1OC2(CCOc3ccccc32)CC(O)=C1Sc1ccccc1Cl (single isomer, unassigned; enantiomer A)

IC50 [2]: 2.1 µM
SMILES: O=C1OC2(CCCc3ccccc32)CC(O)=C1Sc1ccccc1Cl (single isomer, unassigned; enantiomer A)

IC50 [2]: 0.36 µM
SMILES: O=C1OC2(CCc3ccccc32)CC(O)=C1Sc1ccccc1Cl (single isomer, unassigned; enantiomer A)

IC50 [2]: 0.35 µM
SMILES: O=C1OC2(CCc3c(Br)cccc32)CC(O)=C1Sc1ccccc1Cl (single isomer, unassigned; enantiomer A)

IC50 [2]: 0.03 µM
CLhep predicted [8]: 20 mL/min/kg
fraction unbound [5]: < 0.01
EC50 (MCF7 [9]): > 50 µM
CLhep predicted [10]: 41 mL/min/kg
Papp A→B [3]: 1.6 ×10⁻⁶ cm/s
EC50 (MCF7 [11]): 32 µM
fraction unbound [6]: < 0.01
solubility kinetic [12]: 169 µM (≈ 73.5 µg/mL)
SMILES: O=C1OC2(CCc3c(-c4ccccc4)cccc32)CC(O)=C1Sc1ccccc1Cl (single isomer, unassigned; enantiomer A)
Activity (MCF7 [7]): Non-toxic

IC50 [2]: 28 µM
SMILES: O=C1OC2(CCOc3ccccc32)CC(O)=C1Sc1ccccc1Cl (single isomer, unassigned; enantiomer B)

IC50 [2]: 22 µM
SMILES: O=C1OC2(CCCc3ccccc32)CC(O)=C1Sc1ccccc1Cl (single isomer, unassigned; enantiomer B)

IC50 [2]: 2.6 µM
SMILES: O=C1OC2(CCc3ccccc32)CC(O)=C1Sc1ccccc1Cl (single isomer, unassigned; enantiomer B)

IC50 [2]: 0.61 µM
SMILES: O=C1OC2(CCc3c(-c4ccccc4)cccc32)CC(O)=C1Sc1ccccc1Cl (single isomer, unassigned; enantiomer b)
